Assay results as given in ChEMBL document CHEMBL1201862, “PubChem BioAssay data set” (2004).
Several values for one entry are separate records, joined by “and”; a condition that tells them apart may be missing. Identical values can stand only once. Activity calls are given as the source filed them.

Tests used:
[1] = Late stage assay provider results from the probe development effort to identify selective inhibitors of heat shock protein 90 (HSP90): Absorbance-based cell proliferation assay in MCF7 cells.; format: functional
[2] = Late stage assay provider results from the probe development effort to identify selective inhibitors of heat shock protein 90 (HSP90): Absorbance-based cell proliferation assay in SKBR3 cells.; format: functional; settings: SK-BR-3
[3] = target: Endoplasmic reticulum aminopeptidase 1 (Homo sapiens, UniProt Q9NZ08); experiment: ERAP1 aminopeptidase inhibitors, dose response, biochemical, cherry-pick, set 2, plate reader (AID 743314)
Caspase-8 = Caspase-8 (Homo sapiens, UniProt Q14790); experiment: caspase-8 inhibition counter-screen, dose response, selectivity assay for caspase-6 inhibitor project, biochemical, Z-IETD-R110 fluorescence, cherry-picked samples (AID 743294)
[4] = THP-1 cell cytotoxicity, dose response, cytotoxicity control for Vif-APOBEC3G degradation inhibitor project, THP-1 cells (AID 1117359); format: functional; settings: Human immunodeficiency virus 1, THP-1
Protein Tat = Protein Tat (Human immunodeficiency virus type 1 group M subtype B (isolate HXB2)(HIV-1), UniProt P04608); format: functional;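 further: tat binding to TAR RNA read out by fluorescence polarization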
[5] = target: DNA dC->dU-editing enzyme APOBEC-3G (Homo sapiens, UniProt Q9HC16); format: functional;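 further: Dose-response counterscreen measuring inhibition of APOBEC3G DNA deaminase activity, run while confirming APOBEC3A inhibitors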
[6] = target: DNA dC->dU-editing enzyme APOBEC-3A (Homo sapiens, UniProt P31941); experiment: Dose Response confirmation of small molecule APOBEC3A DNA Deaminase Inhibitors via a fluorescence-based single-stranded DNA deaminase assay. [Related pubchem assays (depositor defined):AID493011, AID493024]; format: functional
Caspase-6 = target: T1, Caspase-6 (Homo sapiens, UniProt P55212); experiment: human caspase-6 inhibitors, dose response, biochemical, VEID-R110 fluorescence, cherry-pick (AID 720632)
T1 sequence (P55212 whole entry): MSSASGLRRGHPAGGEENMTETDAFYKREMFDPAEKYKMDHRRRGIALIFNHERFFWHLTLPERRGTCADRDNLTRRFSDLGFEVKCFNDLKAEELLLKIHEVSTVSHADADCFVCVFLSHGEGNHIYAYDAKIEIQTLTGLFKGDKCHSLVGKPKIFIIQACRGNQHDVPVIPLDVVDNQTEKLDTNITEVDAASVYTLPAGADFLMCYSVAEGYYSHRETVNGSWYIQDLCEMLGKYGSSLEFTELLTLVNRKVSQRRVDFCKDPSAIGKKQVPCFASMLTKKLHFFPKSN

Vero [7] = experiment: Vero cell toxicity, dose response, cytotoxicity control, plate reader, cherry-pick samples (AID 687020); format: functional, cell-based; settings: Chlorocebus sabaeus
[8] = target: Delta-type opioid receptor (Homo sapiens, UniProt P41143); experiment: Late-stage results from the probe development effort to identify antagonists of OPRK1: fluorescence-based cell-based dose response OPRD1 counterscreen, Set 2.; format: functional
[9] = target: Kappa-type opioid receptor (Homo sapiens, UniProt P41145); experiment: Late-stage fluorescence-based cell-based dose response assay for antagonists of kappa opioid receptor 1 (OPRK1).; format: functional
Mu-type opioid receptor = Mu-type opioid receptor (Homo sapiens, UniProt P35372); experiment: Late-stage results from the probe development effort to identify antagonists of OPRK1: luminescence-based cell-based dose response OPRM1 counterscreen, Set 2.; format: functional
[10] = target: Sphingosine 1-phosphate receptor 1 (Homo sapiens, UniProt P21453); experiment: Late-stage counterscreen for antagonists of kappa opioid receptor 1 (OPRK1): fluorescence-based cell-based dose response assay to identify antagonists of Sphingosine 1-Phosphate Receptor 1 (S1P1).; format: functional
fMet-Leu-Phe receptor = fMet-Leu-Phe receptor (Homo sapiens, UniProt P21462); experiment: FPR ligands, dose response (AID 519); format: functional
[11] = target: T2, Beta-2 adrenergic receptor (Homo sapiens, UniProt P07550); experiment: beta2AR agonists driving receptor internalization, dose response, cell-based, FAP fluorogen, flow cytometry, cherry pick 1 (AID 588763); format: functional
[12] = target: T2, Beta-2 adrenergic receptor; experiment: Dose response for HTS for Beta-2AR agonists via FAP method from Powderset2.; format: functional
[13] = T. cruzi growth inhibition in host cells, dose response, cell-based, plate reader, dry powder, set 2 (AID 652275); format: functional
cells [14] = settings: A549
HeLa = experiment: HeLa cell cytotoxicity, dose response, cytotoxicity control for MITF activator project, CellTiter-Glo luminescence, cherry-pick samples (AID 540259); format: functional, cell-based; settings: Homo sapiens
cells [15] = settings: HEK293
Nonstructural protein 1 = Nonstructural protein 1 (Influenza A virus, UniProt Q194T2); format: functional, Influenza A virus (A/California/07/2009(H1N1))
Albumin = Albumin (Bos taurus, UniProt P02769); experiment: Counterscreen for inhibitors of T-cell receptor (TCR)-CD3 interaction: Fluorescence-based biochemical high throughput dose response assay to identify inhibitors of T-cell receptor (TCR)-CD3 interaction using a TAMRA-labeled BSA probe.; format: functional
[16] = target: SWI/SNF-related matrix-associated actin-dependent regulator of chromatin subfamily A member 2 (Homo sapiens, UniProt P51531); experiment: Luminescence-based cell-based high throughput dose response assay to identify activators of the function of SWI/SNF related, matrix associated, actin dependent regulator of chromatin, subfamily a, member 2 (SMARCA2, BRM).; format: functional
[17] = Counterscreen for activators of the function of SWI/SNF related, matrix associated, actin dependent regulator of chromatin, subfamily a, member 2 (SMARCA2, BRM): Luminescence-based cell-based high throughput dose response assay to identify non-selective compounds using the VP16 reporter assay.; format: functional
[18] = BHK-21 cell cytotoxicity, cytotoxicity control for flavivirus guanylyltransferase probe project, secondary screen (AID 624078); format: functional
[19] = target: Protein disulfide-isomerase (Homo sapiens, UniProt P07237); experiment: PDI inhibitors, insulin turbidity readout, confirmation, biochemical, dry powder samples, set 2 (AID 652146)
[20] = HEK293T cell cytotoxicity, dose response, cytotoxicity control for HIV Vif inhibitor project, cherry-picks (AID 652208); format: functional, cell-based
Vero [21] = experiment: cells; format: functional; settings: Chlorocebus sabaeus
[22] = target: T3, Sentrin-specific protease 8 (Homo sapiens, UniProt Q96LD8); format: functional
T3 sequence (Q96LD8 whole entry): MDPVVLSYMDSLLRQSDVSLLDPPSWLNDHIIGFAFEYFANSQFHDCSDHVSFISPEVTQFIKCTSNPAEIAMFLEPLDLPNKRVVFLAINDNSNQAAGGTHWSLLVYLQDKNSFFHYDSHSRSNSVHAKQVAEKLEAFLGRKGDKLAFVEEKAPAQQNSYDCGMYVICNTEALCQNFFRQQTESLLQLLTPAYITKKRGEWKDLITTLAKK

[23] = target: T3, Sentrin-specific protease 8; format: functional; remark: listed apart in the source
Caspase-3 = target: T4, Caspase-3 (Homo sapiens, UniProt P42574); experiment: Dose-response confirmation of uHTS inhibitor hits of Sentrin-Specific Protease 8 in a Caspase-3 Fluorescence assay.; format: functional
T4 sequence (P42574 whole entry): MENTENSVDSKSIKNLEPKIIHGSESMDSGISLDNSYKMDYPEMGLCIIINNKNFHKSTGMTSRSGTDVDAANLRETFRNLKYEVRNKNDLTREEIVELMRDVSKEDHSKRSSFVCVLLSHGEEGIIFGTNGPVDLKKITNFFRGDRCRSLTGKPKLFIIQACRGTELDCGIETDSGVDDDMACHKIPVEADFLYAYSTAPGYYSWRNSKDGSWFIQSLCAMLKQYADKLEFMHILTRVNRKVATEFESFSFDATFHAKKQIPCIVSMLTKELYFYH

[24] = target: T5, Replicative DNA helicase DnaB (Mycobacterium tuberculosis, UniProt P9WMR3); experiment: DnaB intein splicing inhibitors, dose response, biochemical, cell-free fluorescence (AID 449749); format: functional
T5 sequence (P9WMR3 whole entry): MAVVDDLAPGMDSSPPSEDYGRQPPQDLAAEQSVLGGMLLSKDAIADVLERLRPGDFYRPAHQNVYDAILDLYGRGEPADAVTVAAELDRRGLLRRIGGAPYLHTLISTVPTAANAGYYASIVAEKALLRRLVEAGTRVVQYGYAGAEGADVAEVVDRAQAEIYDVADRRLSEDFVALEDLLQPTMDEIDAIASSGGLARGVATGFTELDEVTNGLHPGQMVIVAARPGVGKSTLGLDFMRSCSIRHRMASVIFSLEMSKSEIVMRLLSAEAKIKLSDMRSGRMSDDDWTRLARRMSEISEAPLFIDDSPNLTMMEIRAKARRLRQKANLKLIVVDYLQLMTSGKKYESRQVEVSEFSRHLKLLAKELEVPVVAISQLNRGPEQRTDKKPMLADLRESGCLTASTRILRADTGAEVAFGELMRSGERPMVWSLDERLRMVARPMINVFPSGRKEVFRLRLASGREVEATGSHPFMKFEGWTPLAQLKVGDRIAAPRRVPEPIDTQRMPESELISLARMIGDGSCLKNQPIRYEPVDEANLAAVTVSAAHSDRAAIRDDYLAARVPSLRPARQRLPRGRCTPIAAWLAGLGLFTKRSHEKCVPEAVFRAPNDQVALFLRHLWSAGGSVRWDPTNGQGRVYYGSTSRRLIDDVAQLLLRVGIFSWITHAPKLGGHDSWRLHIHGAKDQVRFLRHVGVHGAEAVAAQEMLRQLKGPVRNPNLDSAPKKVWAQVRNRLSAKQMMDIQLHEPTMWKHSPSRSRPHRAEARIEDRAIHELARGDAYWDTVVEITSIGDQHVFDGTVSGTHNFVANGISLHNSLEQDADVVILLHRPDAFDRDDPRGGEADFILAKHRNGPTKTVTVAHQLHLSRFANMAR

Protein RecA = target: T6, Protein RecA (Mycobacterium tuberculosis, UniProt P9WHJ3); experiment: Fluorescence Cell-Free Homogeneous Dose Retest to Identify Inhibitors of RecA-Intein Splicing Activity. [Related pubchem assays (depositor defined):AID2097, AID2223, AID489010, AID492950]; format: functional
T6 sequence (P9WHJ3 whole entry): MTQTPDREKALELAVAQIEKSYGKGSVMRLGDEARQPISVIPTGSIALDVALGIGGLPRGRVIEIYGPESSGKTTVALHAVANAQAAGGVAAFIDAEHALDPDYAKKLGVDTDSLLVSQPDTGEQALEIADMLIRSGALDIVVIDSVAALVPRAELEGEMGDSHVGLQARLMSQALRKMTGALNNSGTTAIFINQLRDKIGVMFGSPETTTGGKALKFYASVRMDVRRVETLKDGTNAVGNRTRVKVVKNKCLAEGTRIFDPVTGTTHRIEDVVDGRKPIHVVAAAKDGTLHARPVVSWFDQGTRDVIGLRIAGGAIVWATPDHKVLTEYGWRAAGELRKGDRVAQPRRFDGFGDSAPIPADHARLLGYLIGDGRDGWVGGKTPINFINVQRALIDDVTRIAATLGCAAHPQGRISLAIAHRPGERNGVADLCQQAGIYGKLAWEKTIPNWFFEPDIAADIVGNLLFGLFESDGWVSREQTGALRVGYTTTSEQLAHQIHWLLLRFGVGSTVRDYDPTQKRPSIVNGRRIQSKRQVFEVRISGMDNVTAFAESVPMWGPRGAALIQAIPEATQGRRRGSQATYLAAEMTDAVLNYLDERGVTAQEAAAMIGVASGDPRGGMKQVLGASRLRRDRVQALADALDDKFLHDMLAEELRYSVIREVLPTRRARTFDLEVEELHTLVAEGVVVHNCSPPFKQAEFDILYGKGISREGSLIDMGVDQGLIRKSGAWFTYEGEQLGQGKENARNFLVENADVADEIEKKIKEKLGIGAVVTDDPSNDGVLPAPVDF

T2 sequence (P07550 whole entry): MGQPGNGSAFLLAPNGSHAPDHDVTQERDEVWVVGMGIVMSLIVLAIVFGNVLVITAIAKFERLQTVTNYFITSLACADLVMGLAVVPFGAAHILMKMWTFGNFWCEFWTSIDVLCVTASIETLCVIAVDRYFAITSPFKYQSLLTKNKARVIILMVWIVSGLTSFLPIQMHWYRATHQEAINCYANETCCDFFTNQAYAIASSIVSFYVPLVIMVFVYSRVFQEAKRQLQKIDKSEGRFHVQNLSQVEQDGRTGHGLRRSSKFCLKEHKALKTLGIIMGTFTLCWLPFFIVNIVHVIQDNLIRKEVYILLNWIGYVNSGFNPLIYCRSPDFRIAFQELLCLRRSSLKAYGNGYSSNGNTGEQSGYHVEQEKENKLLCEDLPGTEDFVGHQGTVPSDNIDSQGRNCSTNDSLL
Sequence of Endoplasmic reticulum aminopeptidase 1 (Q9NZ08 whole entry): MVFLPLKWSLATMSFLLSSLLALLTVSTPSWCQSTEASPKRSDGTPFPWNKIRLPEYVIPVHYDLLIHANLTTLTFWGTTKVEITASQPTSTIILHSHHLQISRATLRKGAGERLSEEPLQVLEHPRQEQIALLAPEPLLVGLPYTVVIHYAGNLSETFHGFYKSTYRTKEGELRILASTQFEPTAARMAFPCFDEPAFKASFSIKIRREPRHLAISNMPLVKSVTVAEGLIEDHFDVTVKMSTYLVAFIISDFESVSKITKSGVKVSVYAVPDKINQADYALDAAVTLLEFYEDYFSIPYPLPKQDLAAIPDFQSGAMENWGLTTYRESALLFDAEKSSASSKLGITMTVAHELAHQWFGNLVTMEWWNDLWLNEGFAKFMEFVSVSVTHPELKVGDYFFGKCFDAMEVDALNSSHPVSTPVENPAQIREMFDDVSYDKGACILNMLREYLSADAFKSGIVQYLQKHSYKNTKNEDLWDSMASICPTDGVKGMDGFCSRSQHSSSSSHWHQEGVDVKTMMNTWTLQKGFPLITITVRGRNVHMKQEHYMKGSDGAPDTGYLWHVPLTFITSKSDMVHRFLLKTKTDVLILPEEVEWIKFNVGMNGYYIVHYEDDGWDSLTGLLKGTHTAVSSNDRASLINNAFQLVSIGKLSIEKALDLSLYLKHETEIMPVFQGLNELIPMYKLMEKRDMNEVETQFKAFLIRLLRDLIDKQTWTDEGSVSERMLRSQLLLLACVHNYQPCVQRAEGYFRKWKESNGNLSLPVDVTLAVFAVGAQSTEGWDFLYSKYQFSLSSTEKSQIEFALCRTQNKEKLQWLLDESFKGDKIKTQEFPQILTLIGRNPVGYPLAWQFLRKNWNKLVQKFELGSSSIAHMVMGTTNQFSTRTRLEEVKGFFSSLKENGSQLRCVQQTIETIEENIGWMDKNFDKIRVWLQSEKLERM
Sequence of SWI/SNF-related matrix-associated actin-dependent regulator of chromatin subfamily A member 2 (P51531 whole entry): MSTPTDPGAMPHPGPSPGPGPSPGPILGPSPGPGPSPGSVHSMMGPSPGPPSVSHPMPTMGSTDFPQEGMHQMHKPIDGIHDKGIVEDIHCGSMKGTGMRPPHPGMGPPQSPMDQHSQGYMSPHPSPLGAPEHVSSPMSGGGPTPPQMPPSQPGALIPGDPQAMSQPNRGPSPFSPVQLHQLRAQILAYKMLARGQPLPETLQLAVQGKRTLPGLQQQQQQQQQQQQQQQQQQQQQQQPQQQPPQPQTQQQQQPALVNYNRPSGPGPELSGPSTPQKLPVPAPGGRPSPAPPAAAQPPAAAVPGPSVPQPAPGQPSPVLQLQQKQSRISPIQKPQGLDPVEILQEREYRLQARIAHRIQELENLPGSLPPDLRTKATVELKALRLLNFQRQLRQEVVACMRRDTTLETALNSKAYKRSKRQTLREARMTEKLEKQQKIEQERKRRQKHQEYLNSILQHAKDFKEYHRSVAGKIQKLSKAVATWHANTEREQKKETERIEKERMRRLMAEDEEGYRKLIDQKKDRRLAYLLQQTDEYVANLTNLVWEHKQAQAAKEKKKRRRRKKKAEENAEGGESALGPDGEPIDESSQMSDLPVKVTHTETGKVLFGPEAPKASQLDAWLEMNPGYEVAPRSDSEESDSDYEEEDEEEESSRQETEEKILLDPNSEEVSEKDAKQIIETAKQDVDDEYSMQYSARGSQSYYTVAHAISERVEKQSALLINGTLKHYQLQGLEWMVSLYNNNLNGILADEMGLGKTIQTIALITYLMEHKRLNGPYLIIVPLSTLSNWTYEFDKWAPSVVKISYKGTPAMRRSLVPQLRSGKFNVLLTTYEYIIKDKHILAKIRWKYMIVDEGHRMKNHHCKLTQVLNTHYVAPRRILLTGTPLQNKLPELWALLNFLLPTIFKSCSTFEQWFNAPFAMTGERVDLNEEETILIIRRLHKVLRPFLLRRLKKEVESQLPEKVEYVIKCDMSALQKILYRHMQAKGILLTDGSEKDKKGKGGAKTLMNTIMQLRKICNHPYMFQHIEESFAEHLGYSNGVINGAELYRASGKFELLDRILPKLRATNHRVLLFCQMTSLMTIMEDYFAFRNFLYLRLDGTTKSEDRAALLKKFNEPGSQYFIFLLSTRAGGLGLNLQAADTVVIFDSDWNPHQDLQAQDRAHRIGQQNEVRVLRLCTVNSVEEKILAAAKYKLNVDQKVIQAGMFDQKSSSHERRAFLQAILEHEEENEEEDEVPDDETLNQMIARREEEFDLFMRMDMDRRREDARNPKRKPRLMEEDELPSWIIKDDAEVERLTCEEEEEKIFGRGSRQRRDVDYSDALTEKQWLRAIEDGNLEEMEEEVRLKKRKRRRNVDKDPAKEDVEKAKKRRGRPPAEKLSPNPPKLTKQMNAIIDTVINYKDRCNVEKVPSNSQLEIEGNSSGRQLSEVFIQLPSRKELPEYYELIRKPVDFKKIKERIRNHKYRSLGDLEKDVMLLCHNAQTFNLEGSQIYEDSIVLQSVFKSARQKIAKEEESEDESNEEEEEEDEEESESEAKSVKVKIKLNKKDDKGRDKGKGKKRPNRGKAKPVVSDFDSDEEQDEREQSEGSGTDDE
Sequence of Protein Tat (P04608 whole entry): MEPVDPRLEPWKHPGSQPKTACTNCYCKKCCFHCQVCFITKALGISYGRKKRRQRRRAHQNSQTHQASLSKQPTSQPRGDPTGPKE
Sequence of DNA dC->dU-editing enzyme APOBEC-3G (Q9HC16 whole entry): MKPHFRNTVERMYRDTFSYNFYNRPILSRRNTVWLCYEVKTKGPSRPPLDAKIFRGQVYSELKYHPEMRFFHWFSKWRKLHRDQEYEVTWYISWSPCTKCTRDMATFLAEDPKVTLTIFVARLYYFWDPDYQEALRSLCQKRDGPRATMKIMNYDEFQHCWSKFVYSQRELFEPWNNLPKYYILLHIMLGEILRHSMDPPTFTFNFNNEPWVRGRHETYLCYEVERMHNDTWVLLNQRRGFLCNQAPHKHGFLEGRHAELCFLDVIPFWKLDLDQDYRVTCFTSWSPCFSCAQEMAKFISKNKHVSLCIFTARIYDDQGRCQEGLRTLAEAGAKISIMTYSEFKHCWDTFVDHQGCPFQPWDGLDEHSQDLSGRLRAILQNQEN
Sequence of Albumin (P02769 whole entry): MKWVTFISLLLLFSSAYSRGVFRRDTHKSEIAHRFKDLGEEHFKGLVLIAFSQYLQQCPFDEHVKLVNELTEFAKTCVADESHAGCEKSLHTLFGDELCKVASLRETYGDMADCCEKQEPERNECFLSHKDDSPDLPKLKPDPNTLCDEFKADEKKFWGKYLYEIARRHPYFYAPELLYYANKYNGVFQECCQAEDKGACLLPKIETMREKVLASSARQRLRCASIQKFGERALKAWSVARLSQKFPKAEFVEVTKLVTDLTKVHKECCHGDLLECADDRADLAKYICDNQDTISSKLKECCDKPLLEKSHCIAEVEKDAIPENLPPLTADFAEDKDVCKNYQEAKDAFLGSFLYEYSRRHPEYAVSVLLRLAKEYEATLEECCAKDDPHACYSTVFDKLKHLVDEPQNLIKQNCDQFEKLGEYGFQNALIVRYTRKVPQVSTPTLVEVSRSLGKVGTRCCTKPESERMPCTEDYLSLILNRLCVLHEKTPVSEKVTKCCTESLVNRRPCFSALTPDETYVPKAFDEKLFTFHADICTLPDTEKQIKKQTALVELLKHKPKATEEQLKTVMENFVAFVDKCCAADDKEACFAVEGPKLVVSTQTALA
Sequence of fMet-Leu-Phe receptor (P21462 whole entry): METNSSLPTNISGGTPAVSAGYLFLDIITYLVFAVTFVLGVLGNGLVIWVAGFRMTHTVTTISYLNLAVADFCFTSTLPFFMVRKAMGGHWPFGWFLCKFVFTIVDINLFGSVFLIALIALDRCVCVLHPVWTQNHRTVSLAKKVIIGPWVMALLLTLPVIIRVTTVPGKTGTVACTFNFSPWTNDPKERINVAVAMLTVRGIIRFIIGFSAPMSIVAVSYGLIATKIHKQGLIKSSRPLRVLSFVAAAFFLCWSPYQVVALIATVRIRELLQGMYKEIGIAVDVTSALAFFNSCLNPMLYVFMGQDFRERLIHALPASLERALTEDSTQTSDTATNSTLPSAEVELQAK
Sequence of Delta-type opioid receptor (P41143 whole entry): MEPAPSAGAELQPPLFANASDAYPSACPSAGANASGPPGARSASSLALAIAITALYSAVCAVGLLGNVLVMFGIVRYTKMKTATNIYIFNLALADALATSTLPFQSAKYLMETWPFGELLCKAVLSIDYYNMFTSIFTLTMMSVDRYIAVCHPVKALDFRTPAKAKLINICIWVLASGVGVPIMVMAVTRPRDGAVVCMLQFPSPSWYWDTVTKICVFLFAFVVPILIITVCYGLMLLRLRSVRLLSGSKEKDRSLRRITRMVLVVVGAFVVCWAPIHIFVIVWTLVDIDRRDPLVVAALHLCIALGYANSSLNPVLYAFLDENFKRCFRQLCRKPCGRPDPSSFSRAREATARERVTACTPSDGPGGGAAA
Sequence of Nonstructural protein 1 (Q194T2 whole entry): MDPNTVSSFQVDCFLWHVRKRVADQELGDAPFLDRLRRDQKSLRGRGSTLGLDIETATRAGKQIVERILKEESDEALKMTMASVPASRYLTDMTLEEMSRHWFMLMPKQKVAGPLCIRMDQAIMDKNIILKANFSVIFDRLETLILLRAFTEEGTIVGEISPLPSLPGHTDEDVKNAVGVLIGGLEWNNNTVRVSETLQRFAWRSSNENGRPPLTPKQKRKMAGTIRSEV

## CCOc1ccc(NC(=O)c2cc(=O)c(OC)c[nH]2)cc1
[1]
  IC50: > 100 µM (inactive)
[2]
  IC50: > 100 µM (inactive)

## COCCCn1c(C(=O)N2CCOCC2)cc2c(=O)n3ccccc3nc21
[3]
  AC50: 9.81 µM (active)

## CN(CC(=O)Nc1c(Cl)cccc1Cl)C(=O)c1cccc(-n2cccc2)c1
Caspase-8
  AC50: > 70 µM (inactive)
[4]
  CC50: > 40 µM (active)
Protein Tat
  IC50: > 100 µM (active)
[5]
  IC50: 34.6 µM (active)
[6]
  IC50: 13.9 µM (active)
Caspase-6
  AC50: 1.88 µM (active)

## CC1CCC(CN2CCN=C2Nc2ccccc2)CC1 (stereo not given)
Vero [7]
  AC50: 31.6 µM (active)

## COc1ccc(OS(=O)(=O)c2sc(Br)cc2Br)cc1
[8]
  IC50: 35.7 µM (inactive)
[9]
  IC50: 16.9 µM (inactive)
Mu-type opioid receptor
  IC50: > 50 µM (inactive)
[10]
  IC50: > 50 µM (inactive)

## CCC(SC1=Nc2ccccc2C2=NC(CC(C)C)C(=O)N12)C(=O)Nc1ccc2c(c1)OCO2 (stereo not given)
fMet-Leu-Phe receptor
  Ki: 37.6 µM (inactive)

## CCOC(=O)c1ccc(NC(=O)COc2ccc(S(=O)(=O)N3CCCC3)cc2)cc1
[11]
  EC50: 391 nM (active) and 162 nM (active)
[12]
  EC50: 1.37 µM (active)

## CC(C)N1C[C@@H](CN(C)Cc2ccc(Cl)cc2)Oc2c(NC(=O)c3cn(C)cn3)cccc2C1=O
[13]
  AC50: 0.0198 µM (active)

## CC(C)(C)c1csc(N/N=C/c2ccc(O)cc2)n1
Cells [14]
  AC50: > 52 µM (inactive)
HeLa
  AC50: 69.4 µM (active)
Cells [15]
  AC50: > 52 µM (inactive)

## Nc1nnc(CC(=O)N/N=C\c2cc([N+](=O)[O-])ccc2O)s1
Nonstructural protein 1
  IC50: 7.93 µM (active)
Albumin
  IC50: > 94.1 µM (inactive)

## COc1ccc(Br)c(C(=O)Nc2nc3ccccc3[nH]2)c1
[16]
  EC50: > 91.1 µM (inactive)
[17]
  EC50: > 91.1 µM (inactive)

## COc1ccc(OC)c(S(=O)(=O)Nc2cc(SCC(=O)O)c(O)c3ccccc23)c1
[18]
  CC50: 9.6 µM (active)

## CCOC(=O)C1(CCOc2ccccc2)CCN(Cc2ccc(O)cc2)CC1
[19]
  AC50: 10 µM (active)

## CCn1cc(CN2CCCC(C(=O)Nc3cccc(-c4cc5ccccc5[nH]4)c3)C2)c(C)n1 (stereo not given)
[20]
  AC50: 40.9 µM (active)
Vero [21]
  CC50: 24.9 µM (active)

## CCOC(=O)c1nn(-c2ccc(OC)cc2)c(=O)c2c(N)scc12
[22]
  IC50: 6.99 µM (active)
[23]
  IC50: 5.63 µM (active)
Caspase-3
  IC50: 23 µM (active)
[24]
  AC50: 23.2 µM (active)
Protein RecA
  EC50: 1.59 µM (active)
Caspase-6
  AC50: 34.3 µM (active)
